Source: patent publication US20100022542A1, “COMPOUNDS EXHIBITING THROMBOPOIETIN RECEPTOR AGONISM” (Shionogi & Co., Ltd., priority 2000, published 2010)
pEC50: −log10 of the molar value.

Target: T1, human TPO receptor (hTPOR) (Homo sapiens, UniProt P40238)
T1 construct: expressed in transfected cells; host or cells: BaF-B03 (murine IL-3 dependent cell line)
T1 sequence (P40238 26-635): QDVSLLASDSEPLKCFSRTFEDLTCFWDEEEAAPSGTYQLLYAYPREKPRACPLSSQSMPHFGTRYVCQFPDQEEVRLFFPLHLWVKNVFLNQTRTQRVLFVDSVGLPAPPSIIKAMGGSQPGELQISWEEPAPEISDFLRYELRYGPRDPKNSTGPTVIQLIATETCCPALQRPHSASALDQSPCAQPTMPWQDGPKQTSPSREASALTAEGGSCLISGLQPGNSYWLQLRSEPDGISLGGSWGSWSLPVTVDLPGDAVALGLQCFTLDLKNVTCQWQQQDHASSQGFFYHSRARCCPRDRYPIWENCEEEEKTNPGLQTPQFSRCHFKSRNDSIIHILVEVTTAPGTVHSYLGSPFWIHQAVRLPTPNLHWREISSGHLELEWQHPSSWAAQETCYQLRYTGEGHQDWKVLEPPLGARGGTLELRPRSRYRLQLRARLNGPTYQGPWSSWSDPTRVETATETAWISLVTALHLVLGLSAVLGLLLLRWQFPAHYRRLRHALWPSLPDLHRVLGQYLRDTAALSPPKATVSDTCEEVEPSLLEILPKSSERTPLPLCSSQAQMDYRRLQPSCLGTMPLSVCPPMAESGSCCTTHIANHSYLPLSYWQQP
Assay: Proliferation of TPO dependent BaF/hTPOR cells, WST-1, thrombopoietic activity ED50 (Test Example 3)
Format: cell-based
Conditions: 20 h incubation then WST-1 4 h, absorbance at 450 nm
Text: FIG. 2: The chart represents proliferation of the human TPO dependent cells bearing human TPO receptors by the present invention compound, wherein the x-axis is concentration of the present invention compound, and the y-axis is the absorbance as an indicator of cell proliferation. Open circles indicate a response of human TPO, and closed circles indicate a response of the compound (B-1).
The TPO dependent BaF/hTPOR cell line which was established by introducing human TPO receptor (hTPOR) into BaF-B03 cells according to Collins et al (J. Cell. Physiol., 137:293-298 (1988)) was used to test the thrombopoietic activity of the present compound. The DNA sequences and encoded peptide sequences for human hTPOR have been described by Vigon et al (Proc. Natl. Acad. Sci. USA, 89:5640-5644 (1992)). TPO dose not have any ability to support proliferation of interleukin-3 dependent parental cell line BaF-B03. BAF/hTPOR cells were maintained in RPMI medium and WEHI-3B conditioned medium as a source of murine interleukin-3 (IL-3). These cells were washed and resuspended in RPMI medium without a source of murine IL-3 and seeded into each well of 96-well microtiter plates at a density of 5×10^4 cells per well in the absence or presence of various concentration of hTPO or the present compound. After incubation at 37° C. for 20 hours in the 5% CO2 incubator, 10% WST-1 reagent (Takara Biomedicals, Japan) was added to each wells and the cells were further incubated for 4 hours. Effect of the present compound on the growth of BAF/mTPOR cell line which was established by introducing murine TPO receptor (mTPOR) into BAF-B03 cells is shown in FIG. 3. Table 8 exemplifies the ED50 for tested compounds of the present invention, wherein the ED50 is the half concentration of the concentration showing the maximum thrombopoietic activity.

CC(Cc1ccc(C(=O)Nc2nc(-c3ccc(Cl)c(Cl)c3)cs2)cc1)C(=O)O (stereo not drawn) [Compound G-3]
pEC50: 6.37

O=C(Nc1nc(-c2ccc(Cl)c(Cl)c2)cs1)c1ccc(CC(Cl)C(=O)O)cc1 (stereo not drawn) [Compound G-4]
pEC50: 6.62

COC(=O)C(Cl)Cc1ccc(C(=O)Nc2nc(-c3ccc(Cl)c(Cl)c3)cs2)cc1 (stereo not drawn) [Compound G-5]
pEC50: 6.59

O=C(Nc1nc(-c2ccc(Cl)c(Cl)c2)cs1)c1ccc(CC(F)C(=O)O)cc1 (stereo not drawn) [Compound G-6]
pEC50: 6.43

CCOC(=O)C(F)Cc1ccc(C(=O)Nc2nc(-c3ccc(Cl)c(Cl)c3)cs2)cc1 (stereo not drawn) [Compound G-7]
pEC50: 6.40

CC(c1ccc(C(=O)Nc2nc(-c3ccc(Cl)c(Cl)c3)cs2)cc1)C(Cl)C(=O)O (stereo not drawn) [Compound G-8]
pEC50: 6.44

Cc1sc(NC(=O)c2ccc(/C=C(\Cl)C(=O)O)cc2)nc1-c1ccc(F)cc1F [Compound J-11]
pEC50: 6.51

Cc1sc(NC(=O)c2ccc(/C=C(\Cl)C(=O)O)cc2)nc1-c1cccc(C(F)(F)F)c1F [Compound J-12]
pEC50: 6.97

Cc1sc(NC(=O)c2ccc(/C=C(\Cl)C(=O)O)cc2)nc1-c1cccc(Br)c1 [Compound J-13]
pEC50: 6.94

Cc1sc(NC(=O)c2ccc(/C=C(\Cl)C(=O)O)cc2)nc1-c1cccc(C(F)(F)F)c1 [Compound J-14]
pEC50: 7.44

CCCCCc1cccc2c1CCc1sc(NC(=O)c3ccc(/C=C(\Cl)C(=O)O)cc3)nc1-2 [Compound J-15]
pEC50: 7.96

COC(=O)C#Cc1ccc(C(=O)Nc2nc(-c3ccc(Cl)c(Cl)c3)cs2)cc1 [Compound L-1]
pEC50: 6.68

O=C(O)C#Cc1ccc(C(=O)Nc2nc(-c3ccc(Cl)c(Cl)c3)cs2)cc1 [Compound L-2]
pEC50: 6.84

COC(=O)C#Cc1ccc(C(=O)Nc2nc(-c3ccc(Cl)c(Cl)c3)cs2)cc1OC [Compound L-3]
pEC50: 6.49

COc1cc(C(=O)Nc2nc(-c3ccc(Cl)c(Cl)c3)cs2)ccc1C#CC(=O)O [Compound L-4]
pEC50: 6.59
